Molecules are shown by their SMILES. Where two headings read alike, the source gives them in different places. Where a SMILES comes first, the peptide text is derived from it. [ ]: non-standard residue; d: D form. Phe(4-CF3) = N[C@@H](Cc1ccc(C(F)(F)F)cc1)C(=O)O; Phe(3-Cl) = N[C@@H](Cc1cccc(Cl)c1)C(=O)O; Phe(4-Cl) = N[C@@H](Cc1ccc(Cl)cc1)C(=O)O; Phe(4-F) = N[C@@H](Cc1ccc(F)cc1)C(=O)O; NMeF = CN[C@@H](Cc1ccccc1)C(=O)O; NMeI = CC[C@H](C)[C@H](NC)C(=O)O; 2Thi = N[C@@H](Cc1cccs1)C(=O)O; NMeD = CN[C@@H](CC(=O)O)C(=O)O; β3hD = NC(CC(=O)O)CC(=O)O; Aib = CC(C)(N)C(=O)O

Consider 13 compounds from article PMC10143822, “Structural Adaptation of the Single-Stranded DNA-Binding Protein C-Terminal to DNA Metabolizing Partners Guides Inhibitor Design” (Pharmaceutics, 2023).

The target in one assay is T1, ExoI (Escherichia coli, UniProt P04995).
T1 construct: His-tag (cleaved yes); host or cells: E. coli BL21 (DE3) pLysS
Briefly: biochemical. The class given is binding, E. coli. As for the experimental part: (§1) Triplicate measurements were performed using a Clariostar Plus Microplate Reader in 384-well plates for all fluorescence anisotropy (FA) experiments. The settings were 25 °C, excitation at 485 nm, emission at 510 nm, settling time of 0.2 s, and 200 flashes per well.
(§2) Competition fluorescence anisotropy experiments were carried out as follows: protein (0.5 μM either ExoI or RecO) was incubated with 50 nM F-wtSSB peptide and 0–500 μM unlabeled wtSSB (or a variant) peptide for 30 min at room temperature. For direct fluorescence anisotropy measurements, 16 µM ExoI and 7.5 µM RecO were used in the first well. After serial dilution, either 50 nM of F-mSSB or F-sSSB was added to the wells and then incubated for 30 min. Buffers used included 20 mM Tris-HCl (pH 8.0), 100 mM NaCl, 1 mM MgCl2, 1 mM 2-mercaptoethanol, 10% (v/v) glycerol, for ExoI and 20 mM Tris-HCl (pH 8.0), 200 mM NaCl, 1 mM 2-mercaptoethanol, 10% (v/v) glycerol, and 0.01% Triton-X 100 for RecO [37].
(§3) Fluorescence anisotropy values were normalized and are shown as bound fractions (BF, %). BF=r−rmin/λ(rmax−r)+r−rmin, I=2∗PG+S, r=S−PG/I, where r: anisotropy, I: total intensity, P: perpendicular intensity, S: parallel intensity, G: an instrument factor set to 1, BF: ligand fraction bound, and λ=λbound/λunbound=1 .
(§4) Competitive fluorescence anisotropy was analyzed in Origin Pro 9.5, and IC50 values were determined using the Logistic Nonlinear fit function and are shown as plots for each mutated position for each protein in Figures S4 and S6. EC50 values from direct fluorescence anisotropy titrations were plotted in Origin 9.5. Values were determined using the Logistics Nonlinear fit function.

For a further assay, the target named is T2, RecO (Escherichia coli, UniProt P0A7H3).
T2 construct: His-tag (TEV site) (N, cleaved yes); made in house; host or cells: E. coli Rosetta cells
Briefly: biochemical. The settings on record: 0.5 μM RecO, 50 nM F-wtSSB tracer. Type of assay: binding. As for the experimental part: as §1, §2, §3, §4

Where [1] appears, read: 0–500 μM unlabeled peptide, 30 min room temperature, 20 mM Tris-HCl pH 8.0, 200 mM NaCl, 10% glycerol, 0.01% Triton-X 100, 25 °C, triplicate, read-out: IC50 on RecO, competitive fluorescence anisotropy.

T2 sequence (P0A7H3 whole entry): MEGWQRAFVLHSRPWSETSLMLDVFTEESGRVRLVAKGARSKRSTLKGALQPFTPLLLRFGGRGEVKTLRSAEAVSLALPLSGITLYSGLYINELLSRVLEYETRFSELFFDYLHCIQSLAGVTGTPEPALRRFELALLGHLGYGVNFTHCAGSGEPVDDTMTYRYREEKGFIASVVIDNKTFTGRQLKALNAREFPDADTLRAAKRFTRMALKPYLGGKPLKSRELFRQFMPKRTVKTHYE

As to `CC[C@H](C)[C@H](NC(=O)C[C@H](CC(=O)O)NC(=O)[C@H](CC(=O)O)NC(=O)[C@H](CC(=O)O)NC(=O)[C@H](Cc1ccccc1)NC(=O)[C@H](CC(=O)O)NC(C)=O)C(=O)N1CCC[C@H]1C(=O)N[C@@H](Cc1ccccc1)C(=O)O` [β3-Asp5] (Ac-DFDD[β3hD]IPF-OH), the results for the IC50 on ExoI and at RecO (setting [1]) were 13.9 ± 6.11 µM and 0.00591 ± 0.00068 mM, respectively.
As to `CC[C@H](C)[C@H](NC(=O)[C@H](CC(=O)O)NC(=O)[C@H](CC(=O)O)NC(=O)[C@@H](CC(=O)O)NC(=O)[C@H](Cc1ccccc1)NC(=O)[C@H](CC(=O)O)NC(C)=O)C(=O)N1CCC[C@H]1C(=O)N[C@@H](Cc1ccccc1)C(=O)O` [D-Asp3] (Ac-DF[dD]DDIPF-OH), the IC50 worked out at 6.82 ± 0.53 µM at ExoI and 0.00456 ± 0.00153 mM at RecO (setting [1]).
The corresponding values for `CC[C@H](C)[C@H](NC(=O)[C@H](CC(=O)O)NC(=O)[C@H](CC(=O)O)NC(=O)[C@H](CC(=O)O)NC(=O)[C@H](Cc1ccccc1)NC(=O)C[C@H](CC(=O)O)NC(C)=O)C(=O)N1CCC[C@H]1C(=O)N[C@@H](Cc1ccccc1)C(=O)O` [β3-Asp1] (Ac-[β3hD]FDDDIPF-OH) are 4.47 ± 0.25 µM and 0.00803 ± 0.0004 mM.
With `CC(=O)N[C@@H](CC(=O)O)C(=O)N[C@@H](Cc1ccccc1)C(=O)N[C@@H](CC(=O)O)C(=O)N[C@@H](CC(=O)O)C(N)=O` [DFDD] (Ac-DFDD-NH2), the IC50 on ExoI is 312 ± 16.7 µM; on RecO (bound given in mM, read-out: IC50 on RecO, competitive fluorescence anisotropy (no direct inhibitory effect detected)) it was greater than 3 mM.
With `CC[C@H](C)[C@H](NC(=O)[C@H](CC(=O)O)NC(=O)[C@H](CC(=O)O)NC(=O)[C@H](CC(=O)O)NC(=O)[C@H](Cc1cccc(Cl)c1)NC(=O)[C@H](CC(=O)O)NC(C)=O)C(=O)N1CCC[C@H]1C(=O)N[C@@H](Cc1ccccc1)C(=O)O` [3-Cl-Phe2] (Ac-D[Phe(3-Cl)]DDDIPF-OH), the IC50 is 2.03 ± 0.51 µM on ExoI and 0.00344 ± 0.00014 mM at RecO (setting [1]).
On to `CC[C@H](C)[C@H](NC(=O)[C@H](CC(=O)O)NC(=O)[C@H](CC(=O)O)NC(=O)[C@H](CC(=O)O)NC(=O)[C@H](Cc1ccccc1)NC(=O)[C@H](CC(=O)O)NC(C)=O)C(=O)N1CCC[C@H]1C(=O)N[C@@H](Cc1cccs1)C(=O)O` [Thi8] (Ac-DFDDDIP[2Thi]-OH), for which the values for the half-inhibitory concentration (IC50) against ExoI and on RecO (setting [1]) were 7.72 ± 0.51 µM and 0.00859 ± 0.00726 mM, respectively.
Take `CC[C@H](C)[C@H](NC(=O)[C@H](CC(=O)O)NC(=O)[C@H](CC(=O)O)NC(=O)[C@H](CC(=O)O)NC(=O)[C@H](Cc1ccc(F)cc1)NC(=O)[C@H](CC(=O)O)NC(C)=O)C(=O)N1CCC[C@H]1C(=O)N[C@@H](Cc1ccccc1)C(=O)O` [4-F-Phe2] (Ac-D[Phe(4-F)]DDDIPF-OH): the 50% inhibitory concentration (IC50) at RecO (setting [1]) amounted to 0.00305 ± 0.00028 mM.
In the case of `CC[C@H](C)[C@H](NC(=O)[C@H](CC(=O)O)NC(=O)[C@H](CC(=O)O)NC(=O)[C@H](CC(=O)O)NC(=O)[C@H](Cc1ccc(C(F)(F)F)cc1)NC(=O)[C@H](CC(=O)O)NC(C)=O)C(=O)N1CCC[C@H]1C(=O)N[C@@H](Cc1ccccc1)C(=O)O` [4-CF3-Phe2] (Ac-D[Phe(4-CF3)]DDDIPF-OH), at RecO (setting [1]), the IC50 was determined as 0.00327 ± 0.00042 mM.
On the same count and under the same terms, the same measure for `CC[C@H](C)[C@H](NC(=O)[C@H](CC(=O)O)NC(=O)[C@H](CC(=O)O)NC(=O)[C@H](CC(=O)O)NC(=O)[C@H](Cc1ccccc1)NC(=O)[C@H](CC(=O)O)NC(C)=O)C(=O)N1CCC[C@H]1C(=O)N(C)[C@@H](Cc1ccccc1)C(=O)O` [NM-Phe8] (Ac-DFDDDIP[NMeF]-OH): 0.0647 ± 0.0189 mM; for `CC[C@H](C)[C@H](NC(=O)[C@H](CC(=O)O)NC(=O)[C@H](CC(=O)O)NC(=O)[C@H](CC(=O)O)NC(=O)[C@H](Cc1ccc(Cl)cc1)NC(=O)[C@H](CC(=O)O)NC(C)=O)C(=O)N1CCC[C@H]1C(=O)N[C@@H](Cc1ccccc1)C(=O)O` [4-Cl-Phe2] (Ac-D[Phe(4-Cl)]DDDIPF-OH): 0.00238 ± 0.00027 mM.
On the same count and under the same terms, the figure for `CC(=O)N[C@@H](CC(=O)O)C(=O)N[C@@H](Cc1ccc(Cl)cc1)C(=O)N(C)[C@@H](CC(=O)O)C(=O)N[C@@H](CC(=O)O)C(=O)N[C@@H](CCC(=O)O)C(=O)N[C@@H](CC(C)C)C(=O)N1CCC[C@H]1C(=O)N[C@@H](Cc1cccc(Cl)c1)C(=O)O` [R1-sSSB-Ct] (Ac-D[Phe(4-Cl)][NMeD]DELP[Phe(3-Cl)]-OH) is 0.00333 mM.
Compound `CC(=O)N[C@@H](CC(=O)O)C(=O)N[C@@H](Cc1ccccc1)C(=O)N[C@@H](CC(=O)O)C(=O)N[C@@H](CC(=O)O)C(=O)N[C@@H](CC(=O)O)C(=O)NC(C)(C)C(=O)N1CCC[C@H]1C(=O)N[C@@H](Cc1ccccc1)C(=O)O` [Aib6] (Ac-DFDDD[Aib]PF-OH) came in with a half-maximal inhibitory concentration (IC50) on ExoI of 27.6 ± 7.9 µM.
On the same count and under the same terms, the same measure for `CC[C@H](C)[C@@H](C(=O)N1CCC[C@H]1C(=O)N[C@@H](Cc1ccccc1)C(=O)O)N(C)C(=O)[C@H](CC(=O)O)NC(=O)[C@H](CC(=O)O)NC(=O)[C@H](CC(=O)O)NC(=O)[C@H](Cc1ccccc1)NC(=O)[C@H](CC(=O)O)NC(C)=O` [NM-Ile6] (Ac-DFDDD[NMeI]PF-OH): 3.95 ± 0.54 µM.
